Experimental data: ChEMBL document CHEMBL3351762, “The fungal natural product (1S,3S)-austrocortirubin induces DNA damage in HCT116 cells via a mechanism unique from other DNA damaging agents” (Bioorg Med Chem Lett, 2015)
Activity calls are given as the source filed them. The rule behind the calls is not given here.

Assays:
[1] = Cytotoxicity against human HCT116 cells after 72 hrs by cell counting Kit-8 assay; type: functional, cell-based; settings: HCT-116, 72 h
HCT-116 [2] = assay: Induction of DNA damage in human HCT116 cells at G2/M phase at 15 to 30 uM after 24 hrs by gamma-H2AX-staining based-flow cytometry; type: functional
HCT-116 [3] = assay: Induction of DNA damage in human HCT116 cells at S phase at 15 to 30 uM after 24 hrs by gamma-H2AX-staining based-flow cytometry; type: functional
[4] = Cell cycle arrest in human HCT116 cells assessed as increase in accumulation at S phase at 15 to 30 uM after 24 by flow cytometry; type: functional, cell-based; settings: HCT-116
HCT-116 [5] = assay: Induction of apoptosis in human HCT116 cells assessed as early-stage apoptotic cells at 15 uM after 24 to 48 hrs by Annexin V/PI-FITC staining based flow cytometry; type: functional
[6] = Cell cycle arrest in human HCT116 cells assessed as increase in accumulation at G2/M phase at 15 to 30 uM after 24 by flow cytometry; type: functional, cell-based; settings: HCT-116
[7] = Cell cycle arrest in human HCT116 cells assessed as cells at M phase at 15 to 30 uM after 24 by flow cytometry; type: functional, cell-based; settings: HCT-116
HCT-116 [8] = assay: Induction of DNA damage in human HCT116 cells at S phase at 100 to 200 uM after 24 hrs by gamma-H2AX-staining based-flow cytometry; type: functional
HCT-116 [9] = assay: Induction of DNA damage in human HCT116 cells at G0/G1 phase at 100 to 200 nM after 24 hrs by gamma-H2AX-staining based-flow cytometry
[10] = Cell cycle arrest in human HCT116 cells assessed as increase in accumulation at G2/M phase at 100 to 200 uM after 24 by flow cytometry; type: functional, cell-based; settings: HCT-116
[11] = Cell cycle arrest in human HCT116 cells assessed as decrease in accumulation at S phase at 100 to 200 uM after 24 by flow cytometry; type: functional, cell-based; settings: HCT-116
HCT-116 [12] = assay: Induction of DNA damage in human HCT116 cells at G2/M phase at 100 to 200 uM after 24 hrs by gamma-H2AX-staining based-flow cytometry; type: functional
[13] = Cell cycle arrest in human HCT116 cells assessed as cells at M phase at 100 to 200 nM after 24 by flow cytometry; settings: HCT-116
[14] = Cell cycle arrest in human HCT116 cells assessed as increase in accumulation at G2/M phase at 20 uM after 24 by flow cytometry; type: functional, cell-based; settings: HCT-116
[15] = Cell cycle arrest in human HCT116 cells assessed as increase in accumulation at S phase at 20 uM after 24 by flow cytometry; type: functional, cell-based; settings: HCT-116
HCT-116 [16] = assay: Induction of apoptosis in human HCT116 cells assessed as increase in mitosis at 20 uM after 24 by flow cytometry; type: functional

COC1=CC(=O)c2c(O)c3c(c(O)c2C1=O)C[C@@](C)(O)C[C@@H]3O
IC50 [1]: 23.7 µM

COC1=CC(=O)c2c(O)c3c(c(O)c2C1=O)C[C@](C)(O)C[C@@H]3O
Activity (HCT-116 [2]): 50%
Activity (HCT-116 [3]): 90%
Activity [4]: Active
IC50 [1]: 3.7 µM
Activity (HCT-116 [5]): 75%
Activity [6]: Active
Activity [7]: inactive

COC1=CC(=O)c2c(O)c3c(c(O)c2C1=O)C[C@](C)(O)CC3
IC50 [1]: 26.8 µM

C[C@]1(O)Cc2c(O)c3c(c(O)c2[C@@H](O)C1)C(=O)C=C(NCCc1ccccc1)C3=O
IC50 [1]: 16 µM

C[C@]1(O)Cc2c(O)c3c(c(O)c2[C@@H](O)C1)C(=O)C=C(NCCc1ccc(Cl)cc1)C3=O
IC50 [1]: 10.1 µM

COc1cc(O)c2c(c1O)C(=O)c1cc(C)ccc1C2=O [AUSTROCORTIRUBIN]
IC50 [1]: > 50 µM

COc1cccc2c1C(=O)c1c(O)c3c(c(O)c1C2=O)C[C@@](O)(C(=O)CO)C[C@@H]3O[C@H]1C[C@H](N)[C@H](O)[C@H](C)O1 [DOXORUBICIN]
Activity (HCT-116 [8]): 50%
Activity (HCT-116 [9]): inactive
Activity [10]: Active
Activity [11]: Active
Activity (HCT-116 [12]): 50%
IC50 [1]: 0.0199 µM
Activity [13]: inactive

CC(=O)O[C@H]1C(=O)[C@@]2(C)[C@H]([C@H](OC(=O)c3ccccc3)[C@]3(O)C[C@H](OC(=O)[C@H](O)[C@@H](NC(=O)c4ccccc4)c4ccccc4)C(C)=C1C3(C)C)[C@]1(OC(C)=O)CO[C@@H]1C[C@@H]2O [PACLITAXEL]
Activity [14]: Active
Activity [15]: Active
fold change (FC) (HCT-116 [16]): 3
IC50 [1]: 0.0027 µM
